Patent US10485772B2, “Compositions for modulating cancer stem cells and uses therefor” (University of Canberra, priority 2014, dated 2019)

Legend:
Format in all cases: cell-based, human
[1] = test system: laminin-5, uPAR and CD44 transcripts in MCF-7 cells; assay: TaqMan real time PCR transcript analysis of EMT/CSC genes in MCF-IM model
Procedure: For most of the experiments, total RNA was extracted from 5×10^5 to 1×10^6 MCF-7 cells unless otherwise specified. Cells were first thawed in 1 mL of Trizol® Reagent (Invitrogen, Carlsbad, Calif.) for 5 minutes at room temperature to inactivate RNases, followed by trituration to dislodge the cell pellet. The dissociated cells suspended in Tizol (1 mL) were transferred into a 1.5 mL Eppendorf tube for 5 minutes for homogenization. RNA was then extracted by addition of 200 μL chloroform and mixing was done vigorously before centrifuging the samples at 8,000×g for 30 minutes at 4° C. The aqueous layer was then collected into a fresh 1.5 mL Eppendorf tube and an equal volume of isopropanolol was added to the aqueous layer and mixed gently. After 5 minutes at room temperature, samples were either snap frozen on dry ice and stored at −70° C. overnight or until the isolation procedure could be re-commenced. After thawing the samples quickly, the samples were again centrifuged at 8,000×g for 30 minutes at 4° C. to precipitate the RNA. To remove all traces of isopropanolol, next the RNA pellets were washed with 1 mL of ice cold 80% ethanol (Analytical UNIVAR, Seattle, Wash.) before centrifuging at 3,600×g for 10 minutes at 4° C. All ethanol then was removed and pellets were allowed to air dry for 5 minutes. RNA samples were then solubilized by re-suspending them in 50 μL of nuclease-free DEPC (Diethylpyrocarbonate treated) water (Ambion, VIC, Australia). Next, 2 μL of the sample was taken out to measure RNA quality and quantity on Nano-drop® Spectrophotometer ND 1000 (Nanodrop Technologies, Inc., Wilmington, Del., USA) using ND-1000 V3.30 software. All the RNA samples were found pure as they had A260/A280 ratio of 1.9-2.1 and this ratio provides an estimate of RNA purity with respect to contaminants such as proteins that absorb in the UV spectrum.
Superscript™® III kit (Invitrogen, Carlsbad, Calif.) was used for cDNA synthesis. Master mix-1 was prepared by adding 1 μL of 5 μM oligo (dT) and 1 μL of 100 mM dNTPs and mixed by flicking. Mastermix-2 was prepared by adding 2 μL of RT buffer, 2 μL of 3 mM mgCl2, 2 μL of DTT mix, 1 μL of RNAse out, 1 μL of superscript III and mixed by flicking. For 1 μg RNA, 2 μL of the master mix-1 was added to the samples, mixed and incubated at 65° C. for 5 minutes and then samples were placed on ice to stop the reaction. This step was followed by addition of 10 μL of the master mix-2 per sample and incubation of samples at 50° C. for 50 minutes. The reaction was then stopped by incubating samples at 85° C. for 5 minutes followed by placing the samples on the ice for 2 minutes. […] All the samples were either snap frozen on dry ice or used immediately for quantitative Real-Time PCR analysis. […]

[2] = test system: MDA-MB 231 cells; assay: Phase contrast microscopy of EMT/MET in Basal/metastatic model; conditions: Bisindolylmaleimide 4 μM
Procedure: Phase contrast microscopy was utilized for EMT and wound healing assays under 10× or 20× magnification of Olympus Fluorescence 1X71 microscope. Images were captured and analyzed as described above except that wound healing assay pictures were also analyzed by Image J software (Free software in Public domain developed by NIH).
The adherent human mammary adenocarcinoma MCF-7 and MDA-MB-231 cells were cultured in low glucose DMEM (Gibco) and both supplemented with 10% FCS, 2 mM L-glutamine and 0.1% PSN antibiotics. Cells were stimulated with 0.65 ng/ml of phorbol 12-myristate 13-acetate (PMA) (Sigma-Aldrich) or 20 ng/ml of TGF-β (R&D systems) for the times indicated. For Bisindolylmaleimide-I (Calbiochem) or PKC-θ peptide inhibitor (Calbiochem) studies, cells were pre-treated with 1 μM or 30 μM of inhibitor respectively for 1 h prior to stimulation in MCF-7 cells. In case of MDA-MB-231, cells were treated with 4 μM or 30 μM Bisindolylmaleimide-I or PKC-θ peptide inhibitor respectively.
phase contrast microscopy was performed where cells were viewed at ×4 magnification (wound healing assay) or ×10 magnification (EMT) using an Olympus fluorescence IX71 microscope (Olympus) and images were captured using DPController software (2002 Olympus Optical Co. LTD) and analyzed using Photoshop CS3 (Adobe Systems Inc.). Scans were taken with a 10 μm scale bar.

[3] = test system: laminin-5, uPAR and CD44 transcripts in MDA-MB 231 cells; assay: TaqMan real time PCR transcript analysis of EMT/CSC genes in basal/metastatic model; conditions: bisindolylmaleimide-I 4 μM
Procedure: For most of the experiments, total RNA was extracted from 5×10^5 to 1×10^6 MCF-7 cells unless otherwise specified. Cells were first thawed in 1 mL of Trizol® Reagent (Invitrogen, Carlsbad, Calif.) for 5 minutes at room temperature to inactivate RNases, followed by trituration to dislodge the cell pellet. The dissociated cells suspended in Tizol (1 mL) were transferred into a 1.5 mL Eppendorf tube for 5 minutes for homogenization. RNA was then extracted by addition of 200 μL chloroform and mixing was done vigorously before centrifuging the samples at 8,000×g for 30 minutes at 4° C. The aqueous layer was then collected into a fresh 1.5 mL Eppendorf tube and an equal volume of isopropanolol was added to the aqueous layer and mixed gently. After 5 minutes at room temperature, samples were either snap frozen on dry ice and stored at −70° C. overnight or until the isolation procedure could be re-commenced. […] Next, 2 μL of the sample was taken out to measure RNA quality and quantity on Nano-drop® Spectrophotometer ND 1000 (Nanodrop Technologies, Inc., Wilmington, Del., USA) using ND-1000 V3.30 software. […]
Superscript™® III kit (Invitrogen, Carlsbad, Calif.) was used for cDNA synthesis. […] All the samples were either snap frozen on dry ice or used immediately for quantitative Real-Time PCR analysis. […]

[4] = listed as Broad spectrum PKC pathway inhibitor

SMILES	transcription of key inducible EMT/CSC genes (laminin-5, uPAR, CD44) ([1]; Go6976 1 μM for 1 hour prior to PMA)	EMT (morphology) [2]	EMT (morphology) [2, 4]	transcription of key inducible EMT/CSC genes (laminin-5, uPAR, CD44) [3]	transcription of key inducible EMT/CSC genes (laminin-5, uPAR, CD44) [3, 4]	transcription of key inducible EMT/CSC genes (laminin-5, uPAR, CD44) ([1]; bisindolylmaleimide-I 100 nM for 1 hour prior to PMA)	transcription of key inducible EMT/CSC genes (laminin-5, uPAR, CD44) ([1]; bisindolylmaleimide-I 1 μM for 1 hour prior to PMA)	transcription of key inducible EMT/CSC genes (laminin-5, uPAR, CD44) ([1]; bisindolylmaleimide-I 1 μM for 1 hour prior to PMA, listed as Broad spectrum PKC pathway inhibitor)
Cn1c2ccccc2c2c3c(c4c5ccccc5n(CCC#N)c4c21)CNC3=O [Go6976]	failed to inhibit transcription of key inducible EMT/CSC genes	–	–	–	–	–	–	–
CN(C)CCCn1cc(C2=C(c3c[nH]c4ccccc34)C(=O)NC2=O)c2ccccc21 [bisindolylmaleimide-I]	–	inhibits EMT	inhibition of EMT and CSC formation	inhibits transcription of key inducible EMT/CSC genes	inhibition of EMT and CSC formation	cannot inhibit transcription of key inducible EMT/CSC genes	inhibits transcription of key inducible EMT/CSC genes	inhibition of EMT and CSC formation
